Reference: patent publication US12600714B2, “Substituted pyrazinecarboxamide compounds for treating diseases related to EGFR mutation” (WIGEN BIOMEDICINE TECHNOLOGY (SHANGHAI) CO., LTD., priority 2020, dated 2026)

Legend:
[1] = molecular target: Ba/F3 (EGFR^del19/T790M/C797S) triple-mutant cells (Homo sapiens, UniProt P00533, T790M/C797S, cells depend on it, form not given); experiment: Antiproliferative activity against Ba/F3 (EGFR del19/T790M/C797S) triple-mutant cells, Cell Titer Glow; type: cell-based; conditions: three days after addition of compounds; read-out: Antiproliferative activity BaF3(EGFR^del19/T790M/C797S) IC50
In short: (§1)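 Cells seeded (3000 Ba/F3 del19/T790M/C797S or 2000 A431 per well), compounds added after one day, serially diluted up to 500 nM for Ba/F3 and up to 10 μM for A431. Growth read by Cell Titer Glow after 3 days; IC50 from % growth inhibition.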

EGFR (del19/T790M/C797S) = experiment: HTRF inhibitory activity assay against EGFR (del19/T790M/C797S) enzyme; type: biochemical
In short: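 Wild-type or mutant EGFR preincubated with serially diluted compound 10 min at 28 °C, then reacted 40 min at room temperature with biotinylated TK substrate and ATP. Phosphorylation detected by HTRF (Eu-cryptate anti-TK antibody, streptavidin-XL665, 60 min), 665/615 nm ratio; % inhibition and IC50 vs control.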

EGFR (WT) = EGFR (WT) (Homo sapiens, UniProt P00533); experiment: HTRF inhibitory activity assay against EGFR (WT) enzyme; type: biochemical
Protocol: (§2) Inhibitory Activity Assay of the Compounds Disclosed Herein Against EGFR (del19/T790M/C797S), EGFR (L858R/T790M/C797S) or EGFR (WT) Enzymes
(§3) The inhibitory effects of the compounds against EGFR (del19/T790M/C797S), EGFR (L858R/T790M/C797S) or EGFR (WT) enzyme activity was determined by using HTRF. The procedures are as follows:
(§4) The WT or mutant EGFR proteins were incubated with a serially diluted compounds at 28° C. for 10 min followed by addition of biotin-labeled general tyrosine kinase (TK) substrate and ATP. The mixture was incubated at room temperature for 40 min for reaction. After the termination of the reaction, an Eu3+-Cryptate-labeled antibody against TK and streptavidin-XL665 were added and the mixture was incubated at room temperature for 60 min. The luminescences at 615 nm and 665 nm were detected and the ratio of 665/615 was calculated to quantify the level of TK substrate phosphorylation. Inhibition % and IC50 of the compounds were calculated relative to the control group.

EGFR (L858R/T790M/C797S) = EGFR (L858R/T790M/C797S) (Homo sapiens, UniProt P00533, C797S/L858R/T790M); experiment: HTRF inhibitory activity assay against EGFR (L858R/T790M/C797S) enzyme; type: biochemical; conditions: read-out: EGFR (L858R/T790M/C797S) inhibition (%) (0.3 nM compound)
Protocol: as §2, §3, §4

A431 (EGFR WT) cells = experiment: Antiproliferative activity against A431 (EGFR WT) cells, Cell Titer Glow; type: cell-based; conditions: Homo sapiens, A-431, 72 h; three days after addition of compounds; read-out: Antiproliferative activity A431 wild-type (WT) IC50
In short: as §1

[2] = tested on: H1975 cells carrying EGFR T790M mutation; experiment: In vivo pharmacodynamic study, mouse H1975 subcutaneous xenograft tumor model; set-up: species or system BALB/c nude mice; conditions: intragastric once daily, day 28, H1975 xenograft
Protocol: In Vivo Pharmacodynamic Study—Mouse H1975 Subcutaneous Xenograft Tumor Model
(§5) BALB/c nude mice were grafted subcutaneously on the left dorsum with 5×10^6 H1975 cells carrying EGFR T790M mutation. After the tumor grew to 100-150 mm^3, the mice were randomly divided into the following groups for intragastric administration once daily: group 1: vehicle control; group 2: compound 511 (60 mg/kg); and group 3: compound 511 (80 mg/kg). The tumor volume was measured twice weekly and at the end of treatment. Tumor growth inhibition of the compound was calculated according to the following equation: tumor growth inhibition (TGI)=1−(tumor volume on day 28 in treatment group−tumor volume on day 1 in treatment group)/(tumor volume on day 28 in vehicle control group−tumor volume on day 1 in treatment group).

[3] = tested on: PC9 cells with EGFR Del19/T790M/C797S overexpression; experiment: In vivo pharmacodynamic study, mouse PC9 (EGFR Del19/T790M/C797S) subcutaneous xenograft tumor model; set-up: species or system BALB/c nude mice; conditions: intragastric once daily, day 28, PC9 (EGFR Del19/T790M/C797S) xenograft
Protocol: In Vivo Pharmacodynamic Study—Mouse PC9(EGFR Del19/T790M/C797S) Subcutaneous Xenograft Tumor Model
as §5, with “PC9” for “H1975”, “with” for “carrying”, “Del19/T790M/C797S overexpression.” for “T790M mutation.”

Chain of EGFR (L858R/T790M/C797S) (P00533 25-1210 T790M/C797S/L858R): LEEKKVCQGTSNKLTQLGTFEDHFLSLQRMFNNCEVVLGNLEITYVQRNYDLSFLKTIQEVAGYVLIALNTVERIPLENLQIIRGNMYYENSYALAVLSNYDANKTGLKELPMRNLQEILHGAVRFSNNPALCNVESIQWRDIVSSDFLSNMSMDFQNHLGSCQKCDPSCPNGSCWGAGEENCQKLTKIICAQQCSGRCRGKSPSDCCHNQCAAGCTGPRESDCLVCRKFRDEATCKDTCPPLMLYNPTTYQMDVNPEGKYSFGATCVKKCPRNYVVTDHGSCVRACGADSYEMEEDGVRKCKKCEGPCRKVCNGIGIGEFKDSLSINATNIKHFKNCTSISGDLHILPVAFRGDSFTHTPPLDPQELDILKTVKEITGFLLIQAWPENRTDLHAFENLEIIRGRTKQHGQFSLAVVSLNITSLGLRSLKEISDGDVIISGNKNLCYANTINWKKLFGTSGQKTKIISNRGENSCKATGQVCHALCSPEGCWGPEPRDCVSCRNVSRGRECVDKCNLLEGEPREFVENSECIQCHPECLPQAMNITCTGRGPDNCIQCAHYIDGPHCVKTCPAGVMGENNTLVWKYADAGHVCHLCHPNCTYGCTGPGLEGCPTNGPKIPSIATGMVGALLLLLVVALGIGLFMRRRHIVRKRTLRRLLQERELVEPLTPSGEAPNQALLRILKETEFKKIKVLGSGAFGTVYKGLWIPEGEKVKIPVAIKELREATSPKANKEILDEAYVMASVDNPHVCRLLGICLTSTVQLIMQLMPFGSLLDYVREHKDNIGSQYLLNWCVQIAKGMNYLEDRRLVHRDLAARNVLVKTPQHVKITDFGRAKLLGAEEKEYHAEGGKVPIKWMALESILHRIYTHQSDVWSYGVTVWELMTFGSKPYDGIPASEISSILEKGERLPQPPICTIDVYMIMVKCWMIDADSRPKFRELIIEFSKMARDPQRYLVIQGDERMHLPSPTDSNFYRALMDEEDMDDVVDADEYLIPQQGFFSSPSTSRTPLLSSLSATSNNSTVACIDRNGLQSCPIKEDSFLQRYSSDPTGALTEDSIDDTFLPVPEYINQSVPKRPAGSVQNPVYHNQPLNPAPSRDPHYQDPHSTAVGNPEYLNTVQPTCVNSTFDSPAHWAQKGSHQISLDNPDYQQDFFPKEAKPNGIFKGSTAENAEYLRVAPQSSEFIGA
Chain of EGFR (WT) (P00533 25-1210): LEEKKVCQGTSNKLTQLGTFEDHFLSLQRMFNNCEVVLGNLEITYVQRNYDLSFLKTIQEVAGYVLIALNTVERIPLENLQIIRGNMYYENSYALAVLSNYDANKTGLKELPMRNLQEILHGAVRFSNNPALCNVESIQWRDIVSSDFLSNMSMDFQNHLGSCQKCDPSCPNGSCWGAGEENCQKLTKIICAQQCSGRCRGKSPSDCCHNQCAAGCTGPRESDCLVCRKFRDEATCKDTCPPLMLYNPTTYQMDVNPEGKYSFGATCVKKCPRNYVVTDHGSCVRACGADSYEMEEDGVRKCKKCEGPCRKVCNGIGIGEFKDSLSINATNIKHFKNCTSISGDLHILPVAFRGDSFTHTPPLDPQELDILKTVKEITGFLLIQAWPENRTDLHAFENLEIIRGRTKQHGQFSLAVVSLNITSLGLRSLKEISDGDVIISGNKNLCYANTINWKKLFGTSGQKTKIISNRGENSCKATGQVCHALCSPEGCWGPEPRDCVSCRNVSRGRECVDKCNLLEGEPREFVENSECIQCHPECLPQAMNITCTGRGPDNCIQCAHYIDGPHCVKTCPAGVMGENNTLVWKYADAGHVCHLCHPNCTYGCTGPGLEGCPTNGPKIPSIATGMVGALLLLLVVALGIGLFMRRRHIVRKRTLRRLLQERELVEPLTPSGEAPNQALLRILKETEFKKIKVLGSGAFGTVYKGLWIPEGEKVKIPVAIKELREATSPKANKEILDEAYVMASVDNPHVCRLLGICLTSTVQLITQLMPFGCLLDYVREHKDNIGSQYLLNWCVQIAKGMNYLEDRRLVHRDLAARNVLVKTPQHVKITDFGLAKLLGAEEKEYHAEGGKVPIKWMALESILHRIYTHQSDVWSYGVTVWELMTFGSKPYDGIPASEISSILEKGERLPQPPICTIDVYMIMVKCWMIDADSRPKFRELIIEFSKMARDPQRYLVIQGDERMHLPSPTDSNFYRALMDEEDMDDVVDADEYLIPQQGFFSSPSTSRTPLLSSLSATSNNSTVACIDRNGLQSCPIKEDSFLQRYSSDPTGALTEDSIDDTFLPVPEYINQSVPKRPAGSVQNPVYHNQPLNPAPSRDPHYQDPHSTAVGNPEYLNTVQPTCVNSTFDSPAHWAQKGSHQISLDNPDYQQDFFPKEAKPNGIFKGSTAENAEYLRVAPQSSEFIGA
Chain of Ba/F3 (EGFR^del19/T790M/C797S) triple-mutant cells (P00533 with tags, fused parts or gaps DEL746-750/T790M/C797S, form open): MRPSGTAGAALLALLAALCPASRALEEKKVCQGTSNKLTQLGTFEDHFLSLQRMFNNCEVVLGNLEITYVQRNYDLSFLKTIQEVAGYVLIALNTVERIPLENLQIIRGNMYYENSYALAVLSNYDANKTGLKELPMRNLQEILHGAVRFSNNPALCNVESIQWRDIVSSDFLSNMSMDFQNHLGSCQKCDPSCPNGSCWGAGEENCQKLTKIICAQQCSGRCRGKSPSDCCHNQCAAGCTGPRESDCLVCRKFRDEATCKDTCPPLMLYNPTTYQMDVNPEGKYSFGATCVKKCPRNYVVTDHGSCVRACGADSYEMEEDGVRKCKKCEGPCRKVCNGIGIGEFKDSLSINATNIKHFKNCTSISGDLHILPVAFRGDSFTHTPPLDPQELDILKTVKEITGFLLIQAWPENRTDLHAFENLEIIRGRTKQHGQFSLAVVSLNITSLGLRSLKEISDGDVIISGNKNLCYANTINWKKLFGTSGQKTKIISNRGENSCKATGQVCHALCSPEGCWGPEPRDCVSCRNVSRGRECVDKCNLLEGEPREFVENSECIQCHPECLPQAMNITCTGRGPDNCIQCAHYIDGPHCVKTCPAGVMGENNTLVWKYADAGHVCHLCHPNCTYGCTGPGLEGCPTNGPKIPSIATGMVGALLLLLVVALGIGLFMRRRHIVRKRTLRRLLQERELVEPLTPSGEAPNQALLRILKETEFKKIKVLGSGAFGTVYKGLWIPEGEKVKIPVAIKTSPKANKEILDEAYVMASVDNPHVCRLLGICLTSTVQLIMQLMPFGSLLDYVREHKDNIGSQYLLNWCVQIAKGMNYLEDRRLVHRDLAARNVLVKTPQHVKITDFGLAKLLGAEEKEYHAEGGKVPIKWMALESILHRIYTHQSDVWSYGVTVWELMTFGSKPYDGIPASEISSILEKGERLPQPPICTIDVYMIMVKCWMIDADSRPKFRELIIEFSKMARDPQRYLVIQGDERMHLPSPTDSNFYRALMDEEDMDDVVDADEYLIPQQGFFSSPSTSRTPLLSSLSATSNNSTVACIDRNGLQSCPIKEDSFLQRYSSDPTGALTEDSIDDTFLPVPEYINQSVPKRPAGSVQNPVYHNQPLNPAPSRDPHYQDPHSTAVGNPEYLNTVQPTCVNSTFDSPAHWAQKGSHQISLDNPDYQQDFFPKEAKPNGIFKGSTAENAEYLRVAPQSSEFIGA

Row | Compound | GI50 [1] [nM] | EGFR (del19/T790M/C797S) inhibition (%) (0.3 nM compound) (EGFR (del19/T790M/C797S)) | IC50 (EGFR (WT)) [nM] | inhibition at 0.0003 µM (EGFR (L858R/T790M/C797S)) [%] | IC50 (A431 (EGFR WT) cells) [nM] | TGI (tumor growth inhibition) ([2]; 60 mg/kg) [%] | TGI (tumor growth inhibition) ([2]; 80 mg/kg) [%] | TGI (tumor growth inhibition) ([3]; 60 mg/kg) [%] | TGI (tumor growth inhibition) ([3]; 80 mg/kg) [%]
1 | CN1CCN(C2CCN(c3ccc(Nc4nc(NC5CCOCC5)c(-c5ccccc5)nc4C(N)=O)cc3)CC2)CC1 [compound 1] | 236 | + (+ indicates an inhibition less than or equal to 20%) | > 300 | ≤ 20 | 2500 | – | – | – | –
2 | CN1CCN(C2CCN(c3ccc(Nc4nc(N[C@H]5CC[C@H](O)CC5)c(-c5cccc6[nH]ccc56)nc4C(N)=O)cc3)CC2)CC1 [compound 526] | 5 | +++ (+++ indicates an inhibition greater than 50%.) | 0.33 | > 50 | 100 | – | – | – | –
3 | CN1CCN(C2CCN(c3ccc(Nc4nc(NC5CCOCC5)c(-c5cccc6[nH]ccc56)nc4C(N)=O)cc3)CC2)CC1 [compound 511, 6-(1H-indol-4-yl)-3-((4-(4-(4-methylpiperazin-1-yl)piperidin-1-yl)phenyl)amino)-5-((tetrahydro-2H-pyran-4-yl)amino)pyrazine-2-carboxamide] | 9 | +++ (+++ indicates an inhibition greater than 50%.) | 2.82 | > 50 | 60 | 99 | 104 | 87.41 | 93.17
4 | CN1CCN(C2CCN(c3ccc(Nc4nc(NC5CCOCC5)c(-c5ccncc5)nc4C(N)=O)cc3)CC2)CC1 [compound 39, 3-((4-(4-(4-methylpiperazin-1-yl)piperidin-1-yl)phenyl)amino)-6-(pyridin-4-yl)-5-((tetrahydro-2H-pyran-4-yl)amino)pyrazine-2-carboxamide] | 29 | +++ (+++ indicates an inhibition greater than 50%.) | > 300 | > 50 | 340 | – | – | – | –
